# Test results from US9145372B2, “Pyridazine derivatives, compositions and methods for treating cognitive impairment” (AGENEBIO, INC., priority 2010, dated 2015).
# “Also recorded” adds a separate entry of the source.
# Target: GABAA α5 receptor (Rattus norvegicus, UniProt P18508+P19969)
# Assay: GABAA α5 receptor occupancy in vivo with Ro 15-4513 tracer (hippocampus vs cerebellum)
# Excerpt: Adult male Long Evans rats (265-295 g, Charles River, Portage, Mich., n=4/group) were used for GABAA α5 receptor occupancy studies. Rats were individually housed in ventilated stainless-steel racks on a 12:12 light/dark cycle. Food and water were available ad libitum.
# Ro 15-4513 was used as a receptor occupancy (RO) tracer for GABAA α5 receptor sites in the hippocampus and cerebellum. Ro 15-4513 was chosen as the tracer based on its selectivity for GABAA α5 receptors relative to other alpha subunit containing GABAA receptors and because it has been successfully used for GABAA α5 RO studies in animals and humans (see, e.g., Lingford-Hughes et al., J. Cereb. Blood Flow Metab. 22:878-89 (2002); Pym et al, Br. J. Pharmacol. 146: 817-825 (2005); and Maeda et al., Synapse 47: 200-208 (2003)). Ro 15-4513 (1 μg/kg), was dissolved in 25% hydroxyl-propyl beta-cyclodextrin and administered i.v. 20′ prior to the RO evaluations. Methyl 3,5-diphenylpyridazine-4-carboxylate (0.1-10 mg/kg) was synthesized by Nox Pharmaceuticals (India) and was dissolved in 25% hydroxyl-propyl beta-cyclodextrin and administered i.v. 15′ prior to tracer injection.
# The rats were sacrificed by cervical dislocation 20′ post tracer injection. The whole brain was rapidly removed, and lightly rinsed with sterile water. Trunk blood was collected in EDTA coated eppendorf tubes and stored on wet ice until study completion. Hippocampus and cerebellum were dissected and stored in 1.5 ml eppendorf tubes, and placed on wet ice until tissue extraction. In a drug naïve rat, six cortical brain tissues samples were collected for use in generating blank and standard curve samples.
# Acetonitrile containing 0.1% formic acid was added to each sample at a volume of four times the weight of the tissue sample. For the standard curve (0.1-30 ng/g) samples, a calculated volume of standard reduced the volume of acetonitrile. The sample was homogenized (FastPrep-24, Lysing Matrix D; 5.5 m/s, for 60 seconds or 7-8 watts power using sonic probe dismembrator; Fisher Scientific) and centrifuged for 16-minutes at 14,000 rpm. The (100 μl) supernatant solution was diluted by 300 μl of sterile water (pH 6.5). This solution was then mixed thoroughly and analyzed via LC/MS/MS for […] (tracer) and methyl 3,5-diphenylpyridazine-4-carboxylate.
# Receptor occupancy was determined by the ratio method which compared occupancy in the hippocampus (a region of high GABAA α5 receptor density) with occupancy in the cerebellum (a region with low GABAA α5 receptor density) and additionally by a high dose of the GABAA α5 negative allosteric modulator L-655,708 (10 mg/kg, i.v.) to define full occupancy.
# Sequence of GABAA α5 receptor (P19969 32-464 limits assumed): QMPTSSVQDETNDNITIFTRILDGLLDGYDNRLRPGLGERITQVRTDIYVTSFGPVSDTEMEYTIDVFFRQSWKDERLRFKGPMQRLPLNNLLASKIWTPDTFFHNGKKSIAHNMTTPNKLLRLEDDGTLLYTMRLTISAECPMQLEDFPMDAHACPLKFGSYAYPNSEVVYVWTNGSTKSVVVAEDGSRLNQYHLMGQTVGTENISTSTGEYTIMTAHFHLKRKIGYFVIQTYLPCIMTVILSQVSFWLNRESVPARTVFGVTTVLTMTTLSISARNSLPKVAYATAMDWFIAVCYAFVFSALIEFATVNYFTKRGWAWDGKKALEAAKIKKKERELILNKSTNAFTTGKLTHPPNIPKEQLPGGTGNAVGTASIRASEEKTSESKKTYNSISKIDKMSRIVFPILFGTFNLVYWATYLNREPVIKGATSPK
# Sequence of GABAA α5 receptor (P18508 39-466): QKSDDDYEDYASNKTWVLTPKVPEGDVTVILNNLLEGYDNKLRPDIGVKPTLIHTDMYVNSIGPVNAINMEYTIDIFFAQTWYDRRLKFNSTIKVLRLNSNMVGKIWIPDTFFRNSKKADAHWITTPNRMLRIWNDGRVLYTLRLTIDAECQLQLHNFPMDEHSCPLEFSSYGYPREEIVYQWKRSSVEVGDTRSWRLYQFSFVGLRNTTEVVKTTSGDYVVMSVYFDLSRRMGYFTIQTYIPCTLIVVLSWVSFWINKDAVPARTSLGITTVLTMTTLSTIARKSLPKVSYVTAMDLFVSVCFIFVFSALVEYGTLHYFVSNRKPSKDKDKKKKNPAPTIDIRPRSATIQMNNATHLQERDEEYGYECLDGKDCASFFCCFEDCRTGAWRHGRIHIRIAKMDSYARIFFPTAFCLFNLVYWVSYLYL
# Sequence of GABAA α5 receptor (P63079 26-473 partner): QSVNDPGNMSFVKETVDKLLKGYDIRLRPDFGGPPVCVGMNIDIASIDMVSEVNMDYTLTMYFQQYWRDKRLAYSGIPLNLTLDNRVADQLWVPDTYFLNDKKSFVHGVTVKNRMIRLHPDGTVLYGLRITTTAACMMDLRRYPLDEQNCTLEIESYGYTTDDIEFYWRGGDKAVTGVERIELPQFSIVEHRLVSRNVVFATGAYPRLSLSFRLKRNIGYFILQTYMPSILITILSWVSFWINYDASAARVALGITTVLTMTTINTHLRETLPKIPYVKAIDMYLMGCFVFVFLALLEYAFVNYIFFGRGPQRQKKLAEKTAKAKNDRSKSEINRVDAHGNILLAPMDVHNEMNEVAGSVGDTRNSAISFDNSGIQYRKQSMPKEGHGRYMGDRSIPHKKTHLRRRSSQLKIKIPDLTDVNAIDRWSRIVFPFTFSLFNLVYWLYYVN
smiles,measurement,setting,value
"COC(=O)c1c(-c2ccccc2)cnnc1-c1ccccc1 [methyl 3,5-diphenylpyridazine-4-carboxylate]",Ro 15-4513 binding in hippocampus,"0.01-10 mg/kg, i.v.",blocked; also recorded: dose-dependently reduced
same,cerebellum levels (binding) of Ro 15-4513,"0.01-10 mg/kg, i.v.",did not affect; also recorded: without affecting
same,GABAA α5 receptors occupied at exposures behaviorally active in aged-impaired rats,"hippocampus, FIG. 5",about 32%
same,"ED50 of receptor occupancy, ratio method","i.v., hippocampus/cerebellum ratio method",1.8 mg/kg
same,receptor occupancy at 10 mg/kg,"rat, iv, read-out: GABAA α5 receptor occupancy",> 90%
same,receptor occupancy at 1 mg/kg,"rat, iv, read-out: receptor occupancy at an exposure of 180 ng/g in hippocampus",32 to 39%
